Laboratory results from patent US11135236B2, “Retinoic acid receptor gamma agonists to attenuate anthracycline-induced cardiotoxicity” (Northwestern University, priority 2018, dated 2021).

Assays:
hiPSC-CMs [1] = assay: reactive oxygen species assay (ROS-Glo H2O2); assay type: cell-based, human; conditions: isogenic hiPSC-CMs, 24 h doxorubicin
Method: (§1) 384-well plate-based cell viability, caspase 3/7 activity, and reactive oxygen species (ROS) assays. […] Luminescence was measured using a VarioSkan Lux Multi-Mode Reader (Thermo Scientific) with an integration time of 0.25 sec. 10 μM staurosporine (MedChemExpress) was used as a positive control. […] 10 μM staurosporine and 50 μM menadione (both MedChemExpress) was used as a positive control, respectively. Data were analyzed using Prism 7.0 software (GraphPad) using standard dose-response guidelines.

RARG-WT hiPSC-CMs [2] = assay: caspase 3 and 7 activity after 24 h doxorubicin (Caspase 3/7-Glo); assay type: cell-based, human
Method: as §1

control hiPSC-CMs [3] = assay: hiPSC-CM cell viability after 72 h doxorubicin (CellTiter-Glo); assay type: cell-based, human
Method: as §1

Hs 578T = assay: breast cancer cell viability after 72 h of doxorubicin and RARG agonists co-treatment; conditions: doxorubicin 72 h, Vehicle (no agonist)
Method: as §1
(§2) Breast cancer cell lines. Four human breast cancer cell lines were used, MCF7 (adenocarcinoma, ATCC HTB-22) and Hs 578T (carcinsarcoma, ATCC HTB-126) both cultured in RPMI 1640 (Corning) with 10% FBS (Opti-Gold, GenDEPOT), MDA-MB-231 (adenocarcinoma, ATCC HTB-26) and MDA-MB-468 (adenocarcinoma, ATCC HTB-131) both cultured in DMEM (Corning) with 10% FBS. All cells were cultured on uncoated tissue culture plates (Greiner) and passaged with TrypLE Express (Gibco).

hiPSC-CMs [4] = assay: RNA-seq gene expression analysis of hiPSC-CMs after doxorubicin; conditions: 1 μM doxorubicin, 24 h
Text: RNA-seq gene expression analysis. […] RNA was extracted using TRI Reagent and Direct-zol RNA microprep kit (both Zymo) including on-column DNase digestion to remove genomic DNA. Samples were quantified using an Agilent 2100 Bioanalyzer and passed QC. Library preparation was done using a TruSeq RNA v2 kit (Illumina) and sequencing with NextSeq 500 instrument (Illumina) by Northwestern's NuSeq core facility, generating ˜40 million single-end 75 bp reads for each sample. Reads were mapped to the GRCh38 reference human genome using Subread software (Liao et al., 2013). Gene expression levels and exon usage were estimated using featureCounts function in the Subread software (Liao et al., 2013). Differential gene expression analysis was done using Deseq2 package (Love et al., 2014) and R (v3.3.3).

RARG-WT hiPSC-CMs [5] = assay: hiPSC-CM cell viability after 72 h doxorubicin (CellTiter-Glo); assay type: cell-based, human
Method: as §1

MDA-MB-231 = assay: breast cancer cell viability after 72 h of doxorubicin and RARG agonists co-treatment; conditions: MDA-MB-231, doxorubicin 72 h, Vehicle (no agonist)
Method: as §1, §2

control hiPSC-CMs [6] = assay: caspase 3 and 7 activity after 24 h doxorubicin (Caspase 3/7-Glo); assay type: cell-based, human
Method: as §1

MCF7 = assay: breast cancer cell viability after 72 h of doxorubicin and RARG agonists co-treatment; assay type: cell-based, human; conditions: MCF7, doxorubicin 72 h, Vehicle (no agonist)
Method: as §1, §2

RARG-OE hiPSC-CMs [7] = assay: caspase 3 and 7 activity after 24 h doxorubicin (Caspase 3/7-Glo); assay type: cell-based, human
Method: as §1

MDA-MB-468 = assay: breast cancer cell viability after 72 h of doxorubicin and RARG agonists co-treatment; conditions: MDA-MB-468, doxorubicin 72 h, Vehicle (no agonist)
Method: as §1, §2

C57BL/6J Mice = assay: mouse model of doxorubicin-induced cardiomyopathy, echocardiography; assay type: in vivo; conditions: doxorubicin 3 mg kg^−1 intraperitoneal twice weekly for 3 weeks
Text: Mouse model of doxorubicin-induced cardiomyopathy and drug administration. […] For the control group, we treated mice with corn oil in the same schedule as agonist administration. We recorded an echocardiogram once a week (day 0, day 7, day 14, and day 21) and terminated the experiment at day 21. Hearts were harvested for western blot analyses as mentioned above.
Echocardiographic evaluation. Mice were studied at baseline and weekly during the protocol under light anesthesia with isoflurane (induction 3%, maintenance 1.5%). 2D images in the parastemal short axis were obtained with a GE Vivid 7 ultrasound system (GE Healthcare) equipped with a 13 MHz transducer. Left ventricular end-systolic (LVESD) and end-diastolic (LVEDD) dimensions were measured and left ventricular fractional shortening (FS) was calculated.

RARG-WT hiPSC-CMs [8] = conditions: doxorubicin LD50, agonist 0 μM, 72 h
Method: as §1

RARG-OE hiPSC-CMs [9] = assay: hiPSC-CM cell viability after 72 h doxorubicin (CellTiter-Glo); assay type: cell-based, human
Method: as §1

RARG-KO hiPSC-CMs = assay: as above; assay type: cell-based, human
Method: as §1

## COc1cccc2c1C(=O)c1c(O)c3c(c(O)c1C2=O)C[C@@](O)(C(=O)CO)C[C@@H]3O[C@H]1C[C@H](N)[C@H](O)[C@H](C)O1 [doxorubicin]
hiPSC-CMs [1]
  ROS production: concentration-dependent increase in ROS production
RARG-WT hiPSC-CMs [2]
  LD50, caspase 3 and 7 activity: 0.683 µM
Control hiPSC-CMs [3]
  half-maximal lethal dose (LD50), cell viability: 2.622 µM
Hs 578T
  LD50: 1.829 µM
hiPSC-CMs [4]
  Log2fc AC009014.3: 5.25
  Log2fc AC010136.2: −3.13
  Log2fc ADCYAP1R1: 6.25
  Log2fc AL591893.1: 6.49
  Log2fc BUB1B: −2.89
  Log2fc C11orf87: −3.03
  Log2fc CA7: 5.41
  Log2fc CAV3: −3.53
  Log2fc CCDC60: 4.98
  Log2fc CCDC178: 5.45
  Log2fc CENPA: −2.97
  Log2fc CENPE: −3.10
  Log2fc CENPI: −3.23
  Log2fc CHI3L2: 5.04
  Log2fc CLCA2: 5.42
  Log2fc CMB9.22P13.2: 4.99
  Log2fc CRTAC1: 5.32
  Log2fc CSTA: 5.15
  Log2fc CTD.2083E4.7: −3.85
  Log2fc CYP2J2: −2.82
  Log2fc DAND5: −4.17
  Log2fc DIRAS2: −3.30
  Log2fc DOK7: −3.42
  Log2fc DORAS1: −2.90
  Log2fc EN2: 4.93
  Log2fc ETV7: 6.04
  Log2fc FABP5P3: 4.97
  Log2fc FAM196A: 6.36
  Log2fc FBXL22: −2.80
  Log2fc FBXO40: −2.86
  Log2fc FOXD3: 5.31
  Log2fc FUT1: −2.91
  Log2fc GCK: −3.14
  Log2fc GDNF: 5.54
  Log2fc GPR87: 6.48
  Log2fc GRHL3: 5.45
  Log2fc HIST1H2AG: 5.29
  Log2fc HIST1H2AI: 5.70
  Log2fc HIST1H2BF: 6.22
  Log2fc HIST1H2BG: 4.94
  Log2fc HIST1H3A: 5.14
  Log2fc HIST1H3H: 5.59
  Log2fc HIST1H3J: 5.16
  Log2fc HIST1H4B: 5.29
  Log2fc HPR: −3.01
  Log2fc HRK: −3.01
  Log2fc IGFL3: 5.18
  Log2fc INSM1: 4.97
  Log2fc KCNK3: −3.07
  Log2fc KCNK10: 6.80
  Log2fc KIF18B: −2.86
  Log2fc LINC01164: 4.96
  Log2fc LINC01224: −3.31
  Log2fc LINC01489: −3.45
  Log2fc LRRC10: −3.05
  Log2fc LRRC14B: −4.13
  Log2fc MIR145: −3.74
  Log2fc NEIL3: −2.89
  Log2fc NFE2: −3.03
  Log2fc NHLH2: 7.10
  Log2fc NKX1.2: 5.72
  Log2fc NMUR1: −2.85
  Log2fc NOTO: 5.13
  Log2fc NPBWR1: 5.06
  Log2fc NUF2: −2.87
  Log2fc PAX5: 6.11
  Log2fc PEG13: −3.16
  Log2fc POU3F1: 7.21
  Log2fc PRSS42: −2.89
  Log2fc PRSS44: −3.02
  Log2fc RP1.34B20.4: 5.94
  Log2fc RP1.46F2.3: −3.03
  Log2fc RP3.326I13.1: 5.19
  Log2fc RP3.412A9.12: −2.87
  Log2fc RP4.794I6.4: 5.33
  Log2fc RP5.1139B12.4: −3.80
  Log2fc RP5.1148A21.3: 5.37
  Log2fc RP5.884C9.2: 5.53
  Log2fc RP11.108M9.3: −4.12
  Log2fc RP11.1149O23.2: 5.86
  Log2fc RP11.19O2.1: −3.69
  Log2fc RP11.234B24.2: −2.89
  Log2fc RP11.529G21.2: 5.03
  Log2fc RP11.712B9.2: 5.10
  Log2fc RPL7P3: −3.03
  Log2fc SEC14L5: −3.33
  Log2fc SLC4A11: 5.81
  Log2fc SLC5A1: −2.94
  Log2fc TFAP2C: 4.93
  Log2fc TGFB111: −2.77
  Log2fc TMEM72: −2.93
  Log2fc TMEM88: −2.81
  Log2fc TMEM158: 5.19
  Log2fc TMEM229B: 4.99
  Log2fc TNFRSF10A: 5.25
  Log2fc UTS2R: −3.09
  Log2fc XIRP2: −2.88
  Log2fc ZNF385C.1: −3.34
hiPSC-CMs [4]; RNA-seq
  genes associated with apoptosis, DNA damage, oxidative stress, and doxorubicin resistance: significant upregulation
  genes associated with cardiac function: downregulation
RARG-WT hiPSC-CMs [5]
  LD50, cell viability: 2.061 µM
MDA-MB-231
  LD50: 1.301 µM
Control hiPSC-CMs [6]
  LD50, caspase 3 and 7 activity: 2.078 µM
MCF7
  LD50: 0.490 µM
RARG-OE hiPSC-CMs [7]
  LD50, caspase 3 and 7 activity: 1.83 µM
MDA-MB-468
  LD50: 1.330 µM
C57BL/6J Mice
  cardiac function, as assessed by fractional shortening: steady decline in cardiac function
RARG-WT hiPSC-CMs [8]
  RARG-WT: LD50: 0.469 µM
RARG-OE hiPSC-CMs [9]
  LD50, cell viability: 2.724 µM
RARG-KO hiPSC-CMs
  LD50, cell viability: 1.582 µM
